# According to patent US6978572B1, “Method and device for attracting insects” (Colorado State University Research Foundation, priority 1998, dated 2005):
# Where “and” joins values, the source holds several entries; their conditions need not be identical. Equal entries are not always repeated. Entries after “also recorded” stand apart in the source; their conditions may differ. Where two headings read alike, the source gives them in different places.
# Key:
# [1] = system: western corn root worm larvae; settings: literature reports; cited from earlier work
# [2] = system: western corn root worm larvae
# [3] = system: plant-parasitic nematodes; settings: cited from earlier work
# Reticulitermes tibialis = test: T-tube choice-test behavioral bioassay with CO2; assay type: in vivo
# Description: (§1) Behavioral bioassay apparatus: The choice-test bioassay apparatus was constructed from a glass T-tube (5 mm inside diameter, 5 mm stem, with each branch 4.5 cm long). Each branch of the ‘T’ was bent downward (2.5 cm from the junction of the ‘T’) at a 45° angle to form a pitfall trap. A 5 mm NMR cap (cat. no. 100-0050, Drummond Scientific, Broomall, Pa.) with a 1 mm pinhole in it was firmly pushed over the end of each bent branch. A 25 cm length of Teflon tubing (0.8 mm inside diameter) was inserted 3 mm into the hole in each NMR cap and the other end of the tubing was connected to a 35 ml polyethylene syringe (cat. no. 106-0490, Sherwood Medical, St. Louis, Mo.). The two 35-ml syringes were connected to a syringe pump which was adjusted to provide an airflow of 1 ml per min into each choice arm of the bioassay apparatus. Mixtures of CO2 and ambient air were tested to determine the termite response to a range of CO2 concentrations. A 35-ml syringe was rinsed with distilled water and partially filled (5 ml) with ambient air. Different amounts of 100% CO2 were obtained with a smaller glass syringe from a tank and injected into the 35-ml syringe. Ambient air was then drawn into the 35-ml syringe to fill it and mix the gases by turbulence as the syringe was loaded. A 2nd 35-ml polyethylene syringe was filled with ambient air for a control. Measurements with GC-MS-SIM confirmed that the CO2 concentrations reached equilibrium after 15 min. The CO2 concentration of the syringes was determined by using GC-MS-SIM analysis (see below) before each bioassay. Bioassays were conducted with both Reticulitermes tibialis and Reticulitermes flavipes for 1, 2, 5, 10, 20, 50 and 500 mmol per mol concentrations of CO2 and with Reticulitermes virginicus for 5, 10, 20, and 50 mmol per mol. Procedure: For bioassays, termite workers were collected from plastic tubs by using a camel's hair brush and were placed into a holding container constructed from a 3 cm length of Teflon tubing (8 mm inside diameter). The container was plugged at one end with a NMR cap with two holes (1 mm) drilled in the bottom. A second NMR cap with a 4 mm hole was inserted backwards into the other end of the Teflon tube. The end of the NMR cap was sealed with a small square of cellophane held in place with a plastic tube (a piece of plastic soda straw) that fit snugly over the open end. Termites (5 workers) were placed in the container and the top was sealed. The container was placed horizontally and left undisturbed for 20 min. The T-tube apparatus was assembled and clamped horizontally on top of a block of foam rubber (12 by 12 cm) with a wire bent into a U-shape. The syringe pump was turned on, and after 3 min of pumping, the cellophane seal was removed from the holding container and the entrance to the holding container was gently connected to the central arm of the T-tube, allowing termites to crawl out and enter the apparatus. Bioassays were conducted for 15 min, after which the number of termites in each pitfall was recorded. CO2 measurements: Gas chromatography-mass spectrometry in selected ion monitoring mode (GC-MS-SIM) at m/e 44 was used to determine CO2 concentrations. A Hewlett-Packard Series II 5890 gas chromatograph interfaced with a Hewlett-Packard 5971 mass selective detector was used with a methyl silicone capillary column (30 m×0.32 mm inside diameter, RSL-150, Alltech, Deerfield, Ill.). […]
# Reticulitermes flavipes = test: T-tube choice-test behavioral bioassay with CO2; assay type: in vivo; settings: versus ambient air
# Description: as §1
# [4] = system: Reticulitermes virginicus; test: T-tube choice-test behavioral bioassay with CO2; assay type: in vivo; settings: versus ambient air
# Description: as §1
# wireworm larvae = settings: Doane et al. (1975); cited from earlier work
compound,measurement,setting,value
"ClCCl [dichloromethane, reference compound]",Attraction of larvae reported in earlier publications,[1],attractive to Diabrotica larvae
"O=C=O [CO2, Carbon dioxide]",Attraction of larvae reported in earlier publications,[1],highly attracted to CO2
same,"Selective response, attraction to higher CO2 concentration",[2]; 0.125 mmol/mol difference at higher base concentrations,no difference in attraction was observed in any of the tests at higher concentrations
same,Larvae attracted to CO2 side versus control side,"[2]; 10 mmol/mol CO2 (10.43±0.18) versus ambient air, syringe sources",significantly more western corn root worm larvae (P<0.05) were attracted to the side containing 10 mmol/mol CO2
same,"Selective response, attraction to higher CO2 concentration",[2]; 1 versus 1.125 mmol/mol (actual 1.06±0.05 versus 1.18±0.05),significantly greater attraction was observed to 1.125 mmol/mol than to 1 mmol/mol
same,"Selective response, attraction to higher CO2 concentration",[2]; 1 versus 1.25 mmol/mol,more attracted to the higher CO2 concentration
same,"Selective response, attraction to higher CO2 concentration",[2]; 1 versus 1.50 mmol/mol,Significantly more larvae were attracted
same,"Selective response, attraction to higher CO2 concentration",[2]; 2 versus 2.25 mmol/mol,more attracted to the higher CO2 concentration
same,"Selective response, attraction to higher CO2 concentration",[2]; 2 versus 2.50 mmol/mol,Significantly more larvae were attracted
same,"Selective response, attraction to higher CO2 concentration",[2]; 5 versus 5.25 mmol/mol,no difference in attraction was observed
same,"Selective response, attraction to higher CO2 concentration",[2]; 5 versus 5.50 mmol/mol,Significantly more larvae were attracted
same,"Selective response, attraction to higher CO2 concentration",[2]; 10 versus 10.25 mmol/mol,no difference in attraction was observed
same,"Selective response, attraction to higher CO2 concentration",[2]; 10 versus 10.50 mmol/mol,Significantly more larvae were attracted
same,"Selective response, attraction to higher CO2 concentration",[2]; 20 versus 20.25 mmol/mol,no difference in attraction was observed
same,"Selective response, attraction to higher CO2 concentration",[2]; 20 versus 20.50 mmol/mol,no difference in attraction was observed
same,Smallest difference between the 2 CO2 choices still attracting larvae to the higher concentration,[2]; base level 1 mmol/mol,0.125 mmol/mol
same,CO2 excess over control at which larvae were 1st attracted,"[2]; control contained 1, 2, 5, 10, and 20 mmol/mol CO2",12.5%
same,Lowest CO2 concentration significantly attractive to neonate larvae,[2]; control side ambient air 0.99±0.02 mmol/mol,1.125±0.04 mmol/mol
same,Highest concentration of CO2 to which larvae were attracted,"[2]; dose-response, syringe sources",100 mmol/mol and 85.6±1.20 mmol/mol
same,Most attractive (optimal) concentrations of CO2,"[2]; dose-response, syringe sources",2.51-4.20 mmol/mol and 2.51±0.13 mmol/mol and 4.20±0.21 mmol/mol
same,Lowest concentration of CO2 attractive to the larvae,"[2]; dose-response, syringe sources, control 0.91±0.03",1.34±0.05 mmol/mol
same,CO2 threshold for nematode response,[3]; higher baseline concentration (1.0%),0.05%
same,CO2 threshold for nematode response,[3]; low baseline levels of CO2 (0.1%),0.01%
same,Termites choosing CO2 side versus control side,Reticulitermes tibialis; 5 mmol/mol CO2 versus ambient air,significantly greater than the number that moved to the control side; also recorded: significantly more often; also recorded: Significantly more termites (p<0.05) were attracted to the side containing 5 mmol/mol CO2 than to the control side
same,CO2 concentration of best attraction,Reticulitermes tibialis; versus ambient air,5 mmol per mol
same,CO2 concentrations to which termites were attracted,"Reticulitermes tibialis; versus ambient air, 5 workers, 15 min",10 mmol per mol and 20 mmol per mol
same,CO2 concentration of best attraction,Reticulitermes flavipes,10 mmol per mol
same,CO2 concentration of best attraction,[4],10 mmol per mol
same,Smallest CO2 difference to which larvae respond,wireworm larvae,0.02%
